In patent US20140023611A1 (priority 2010, published 2014):

Assays:
human NaP2b (SLC34A2) = biological target: T1, human NaP2b (SLC34A2) (Homo sapiens, UniProt O95436); test: Inhibition of NaP2b-mediated Pi (33P) uptake in transfected HEK293 cells, human NaP2b; format: cell-based; conditions: read-out: pIC50 range for human NaP2b (converted)
T1 construct: host or cells: HEK293
T1 sequence (O95436 1-690): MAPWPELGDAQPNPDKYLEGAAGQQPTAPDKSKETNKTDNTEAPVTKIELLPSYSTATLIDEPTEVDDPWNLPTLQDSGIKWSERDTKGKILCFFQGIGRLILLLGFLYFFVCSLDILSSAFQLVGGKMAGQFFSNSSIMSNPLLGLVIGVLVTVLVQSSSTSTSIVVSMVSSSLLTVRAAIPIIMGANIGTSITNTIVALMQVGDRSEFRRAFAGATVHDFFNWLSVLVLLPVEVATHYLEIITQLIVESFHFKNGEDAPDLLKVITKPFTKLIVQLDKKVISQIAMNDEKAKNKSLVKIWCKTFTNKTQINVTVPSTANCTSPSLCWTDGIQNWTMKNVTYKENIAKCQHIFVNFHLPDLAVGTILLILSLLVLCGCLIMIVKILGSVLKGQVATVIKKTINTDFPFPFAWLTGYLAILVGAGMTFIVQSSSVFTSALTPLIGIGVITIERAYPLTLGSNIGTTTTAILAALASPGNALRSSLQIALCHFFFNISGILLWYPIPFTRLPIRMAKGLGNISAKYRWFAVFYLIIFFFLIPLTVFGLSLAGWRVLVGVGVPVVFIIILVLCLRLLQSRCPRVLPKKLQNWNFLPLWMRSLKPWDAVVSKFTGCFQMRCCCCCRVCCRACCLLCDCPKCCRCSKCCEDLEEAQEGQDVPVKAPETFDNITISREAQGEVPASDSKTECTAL
Method in brief: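 Uptake of 33P-phosphate (100 uM KH2PO4 carrier, sodium vs choline buffer, pH 7.4) measured after 3-30 min at room temperature, with test compound at twelve concentrations from 0.1 nM to 30 uM in duplicate. Cells were HEK293 transfected with mutated human NaP2b (Thr insertion after 37, N39D) and treated with a PiT-silencing agent. pIC50 values from scintillation counts.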

rat NaP2b (SLC34A2) = biological target: T2, rat NaP2b (SLC34A2) (Rattus norvegicus, UniProt Q9JJ09); test: Inhibition of NaP2b-mediated Pi (33P) uptake in transfected HEK293 cells, rat NaP2b; format: cell-based; conditions: 33P Pi uptake, 0.1 mM phosphate, value given as pIC50 range
T2 construct: host or cells: HEK293
T2 sequence (Q9JJ09 1-695): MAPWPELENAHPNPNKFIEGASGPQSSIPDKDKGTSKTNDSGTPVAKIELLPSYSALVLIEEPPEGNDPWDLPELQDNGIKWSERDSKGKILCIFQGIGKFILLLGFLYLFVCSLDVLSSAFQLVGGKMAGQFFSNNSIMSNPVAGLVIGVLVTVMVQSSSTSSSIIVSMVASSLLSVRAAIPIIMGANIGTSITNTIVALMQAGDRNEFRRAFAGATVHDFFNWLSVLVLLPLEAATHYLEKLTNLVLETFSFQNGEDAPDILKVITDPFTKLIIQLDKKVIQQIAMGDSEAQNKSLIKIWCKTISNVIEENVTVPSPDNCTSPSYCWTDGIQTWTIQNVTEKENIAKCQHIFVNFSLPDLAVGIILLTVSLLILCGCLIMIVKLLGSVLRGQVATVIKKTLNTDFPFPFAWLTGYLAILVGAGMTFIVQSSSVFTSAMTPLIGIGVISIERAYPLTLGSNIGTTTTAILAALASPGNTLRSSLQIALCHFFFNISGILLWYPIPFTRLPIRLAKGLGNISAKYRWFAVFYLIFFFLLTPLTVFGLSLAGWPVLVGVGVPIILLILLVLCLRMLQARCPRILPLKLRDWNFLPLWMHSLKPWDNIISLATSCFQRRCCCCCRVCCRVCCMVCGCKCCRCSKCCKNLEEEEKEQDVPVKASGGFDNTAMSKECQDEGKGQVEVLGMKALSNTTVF
Method in brief: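 The cells transiently expressed NaP2b after Lipofectamine transfection. Each compound was run in duplicate over twelve concentrations, 0.1 nM–30 uM.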

Row | IC50 (human NaP2b (SLC34A2)) [µM] | IC50 (rat NaP2b (SLC34A2)) [µM] | SMILES
1 | 1 to 7.94 | 1 to 7.94 | O=C(O)c1cccc(COc2cccc(C(=O)Nc3ccc(N4CCCCC4)cc3-c3cc(C(=O)NCc4cccc(C(F)(F)F)c4)ccn3)c2)c1 [Example 183, 3-((3-(4-(piperidin-1-yl)-2-(4-(3-(trifluoromethyl)benzylcarbamoyl)pyridin-2-yl)phenylcarbamoyl)phenoxy)methyl)benzoic acid]
2 | < 1 | 1 to 7.94 | O=C(O)CCOCCOCCOCCOCCCc1cccc(C(=O)Nc2ccc(N3CCCCC3)cc2-c2cc(C(=O)NCc3cccc(C(F)(F)F)c3)ccn2)c1 [Example 303, 16-(3-(4-(piperidin-1-yl)-2-(4-(3-(trifluoromethyl)benzylcarbamoyl)pyridin-2-yl)phenylcarbamoyl)phenyl)-4,7,10,13-tetraoxahexadecan-1-oic acid]
3 | < 1 | < 1 | CN(CCN1CCC[C@H]1C(=O)NCCOCCOCCOCCC(=O)OC(C)(C)C)C(=O)c1cccc(C(=O)Nc2ccc(N3CCCCC3)cc2-c2cc(C(=O)N[C@H]3CCCc4ccccc43)ccn2)c1 [Example 192, tert-butyl 1-((S)-1-(2-(N-methyl-3-((4-(piperidin-1-yl)-2-(4-(((S)-1,2,3,4-tetrahydronaphthalen-1-yl)carbamoyl)pyridin-2-yl)phenyl)carbamoyl)benzamido)ethyl)pyrrolidin-2-yl)-1-oxo-5,8,11-trioxa-2-azatetradecan-14-oate]
4 | 1 to 7.94 | 1 to 7.94 | CCN(CC)c1ccc(NC(=O)c2cccc(COCCOCCOCCOCCOCCOCCN(CCO)CCO)c2)c(-c2cc(C(=O)NCc3cccc(C(F)(F)F)c3)ccn2)c1 [Example 178, 2-(5-(diethylamino)-2-(3-(22-hydroxy-20-(2-hydroxyethyl)-2,5,8,11,14,17-hexaoxa-20-azadocosyl)benzamido)phenyl)-N-(3-(trifluoromethyl)benzyl)isonicotinamide]
5 | 1 to 7.94 | < 1 | CCN(CC)c1ccc(NC(=O)c2cccc(CCCOCCOCCOCCOCCC(=O)NC(CO)(CO)CO)c2)c(-c2cc(C(=O)N[C@H]3CCCc4ccccc43)ccn2)c1 [Example 283]
6 | < 1 | 1 to 7.94 | O=C(O)c1cccc(COCc2cccc(C(=O)Nc3ccc(N4CCCCC4)cc3-c3cc(C(=O)NCc4cccc(C(F)(F)F)c4)ccn3)c2)c1 [Example 185, 3-((3-(4-(piperidin-1-yl)-2-(4-(3-(trifluoromethyl)benzylcarbamoyl)pyridin-2-yl)phenylcarbamoyl)benzyloxy)methyl)benzoic acid]
7 | 1 to 7.94 | < 1 | CN(CCN1CCC[C@H]1C(=O)OC(C)(C)C)C(=O)c1cccc(C(=O)Nc2ccc(N3CCCCC3)cc2-c2cc(C(=O)N[C@H]3CCCc4ccccc43)ccn2)c1 [Example 187, (S)-tert-butyl 1-(2-(N-methyl-3-((4-(piperidin-1-yl)-2-(4-(((S)-1,2,3,4-tetrahydronaphthalen-1-yl)carbamoyl)pyridin-2-yl)phenyl)carbamoyl)benzamido)ethyl)pyrrolidine-2-carboxylate]
8 | 1 to 7.94 | 1 to 7.94 | CCN(CC)c1ccc(NC(=O)c2cccc(C(=O)N(C)CCN3CCCC[C@H]3C(=O)NCCOCCOCCOCCOCCOCCOCCOCCOC)c2)c(-c2cc(C(=O)NCc3cccc(C(F)(F)F)c3)ccn2)c1 [Example 201, (S)—N^1-(2-(2-(2,5,8,11,14,17,20,23-octaoxapentacosan-25-yl-carbamoyl)piperidin-1-yl)ethyl)-N^3-(4-(diethylamino)-2-(4-((3-(trifluoromethyl)benzyl)carbamoyl)pyridin-2-yl)phenyl)-N^1-methylisophthalamide]
9 | 1 to 7.94 | 1 to 7.94 | CCN(CC)c1ccc(NC(=O)c2cccc(C(=O)N(C)CCN3CCN(C(=O)OCCOCCOCCOCCOCCOCCOCCOC)CC3)c2)c(-c2cc(C(=O)N[C@H]3CCCc4ccccc43)ccn2)c1 [Example 230, (S)-2,5,8,11,14,17,20-heptaoxadocosan-22-yl 4-(2-(3-(4-(diethylamino)-2-(4-(1,2,3,4-tetrahydronaphthalen-1-ylcarbamoyl)pyridin-2-yl)phenylcarbamoyl)-N-methylbenzamido)ethyl)piperazine-1-carboxylate]
10 | < 1 | < 1 | CN(CCN1CCCN(C(=O)OC(C)(C)C)CC1)C(=O)c1cccc(C(=O)Nc2ccc(N3CCCCC3)cc2-c2cc(C(=O)N[C@H]3CCCc4ccccc43)ccn2)c1 [Example 219, (S)-tert-butyl 4-(2-(N-methyl-3-(4-(piperidin-1-yl)-2-(4-(1,2,3,4-tetrahydronaphthalen-1-ylcarbamoyl)pyridin-2-yl)phenylcarbamoyl)benzamido)ethyl)-1,4-diazepane-1-carboxylate]
11 | 1 to 7.94 | 1 to 7.94 | CCN(CC)c1ccc(NC(=O)c2cccc(C#CCOCCOCCOCCOCCO)c2)c(-c2cc(C(=O)NCc3cccc(C(F)(F)F)c3)ccn2)c1 [Example 266, 2-(5-(diethylamino)-2-(3-(1-hydroxy-3,6,9,12-tetraoxapentadec-14-yn-15-yl)benzamido)phenyl)-N-(3-(trifluoromethyl)benzyl)isonicotinamide]
12 | 1 to 7.94 | 1 to 7.94 | CCN(CC)c1ccc(NC(=O)c2cccc(CCCOCCOCCOCCOCCNC(=O)N(C)CCOCCOCCOCCOCCOCCOCCOC)c2)c(-c2cc(C(=O)NCc3cccc(C(F)(F)F)c3)ccn2)c1 [Example 273, 2-(5-(diethylamino)-2-(3-(23-methyl-24-oxo-2,5,8,11,14,17,20,28,31,34,37-undecaoxa-23,25-diazatetracontan-40-yl)benzamido)phenyl)-N-(3-(trifluoromethyl)benzyl)isonicotinamide]
13 | 1 to 7.94 | < 1 | CN(CCN1CCCN(S(C)(=O)=O)CC1)C(=O)c1cccc(C(=O)Nc2ccc(N3CCCCC3)cc2-c2cc(C(=O)N[C@H]3CCCc4ccccc43)ccn2)c1 [Example 220, (S)—N1-methyl-N1-(2-(4-(methylsulfonyl)-1,4-diazepan-1-yl)ethyl)-N3-(4-(piperidin-1-yl)-2-(4-(1,2,3,4-tetrahydronaphthalen-1-ylcarbamoyl)pyridin-2-yl)phenyl)isophthalamide]
14 | < 1 | 1 to 7.94 | CCN(CC)c1ccc(NC(=O)c2cccc(CCCOCCOCCOCCOCCC(=O)N3CCN(S(=O)(=O)c4ccc(C)cc4)CC3)c2)c(-c2cc(C(=O)NCc3cccc(C(F)(F)F)c3)ccn2)c1 [Example 291, 2-(5-(diethylamino)-2-(3-(16-oxo-16-(4-tosylpiperazin-1-yl)-4,7,10,13-tetraoxahexadecyl)benzamido)phenyl)-N-(3-(trifluoromethyl)benzyl)isonicotinamide]
15 | 1 to 7.94 | 1 to 7.94 | CCN(CC)c1ccc(NC(=O)c2cccc(COCCOCCOCCOCCOC(=O)NCCOCCOCCOCCOCCOCCOCCOC)c2)c(-c2cc(C(=O)NCc3cccc(C(F)(F)F)c3)ccn2)c1 [Example 175, 1-(3-(4-(diethylamino)-2-(4-(3-(trifluoromethyl)benzylcarbamoyl)pyridin-2-yl)phenylcarbamoyl)phenyl)-2,5,8,11-tetraoxamidecan-13-yl 2,5,8,11,14,17,20-heptaoxadocosan-22-ylcarbamate]
16 | < 1 | < 1 | CCN(CC)c1ccc(NC(=O)c2cccc(CCCOCCOCCOCCOCCC(=O)O)c2)c(-c2cc(C(=O)N[C@H]3CCCc4ccccc43)ccn2)c1 [Example 302, (S)-16-(3-(4-(diethylamino)-2-(4-(1,2,3,4-tetrahydronaphthalen-1-ylcarbamoyl)pyridin-2-yl)phenylcarbamoyl)phenyl)-4,7,10,13-tetraoxahexadecan-1-oic acid]
